Data from patent publication US11267794B2, “Benzothia(di)azepine compounds and their use as bile acid modulators” (Albireo AB, priority 2019, dated 2022).

Assays:
[1] = target: T1, hIBAT (Homo sapiens, UniProt Q12908); test: IBAT (h/m) assay, 3H-taurocholic acid uptake in human IBAT-overexpressing cells; format: cell-based; conditions: 0.25 μM 3H-taurocholic acid and 5 μM cold taurocholic acid, 20 minutes
T1 construct: expressed in transfected cells; kept under Puromycin selection
T1 sequence (Q12908 1-348): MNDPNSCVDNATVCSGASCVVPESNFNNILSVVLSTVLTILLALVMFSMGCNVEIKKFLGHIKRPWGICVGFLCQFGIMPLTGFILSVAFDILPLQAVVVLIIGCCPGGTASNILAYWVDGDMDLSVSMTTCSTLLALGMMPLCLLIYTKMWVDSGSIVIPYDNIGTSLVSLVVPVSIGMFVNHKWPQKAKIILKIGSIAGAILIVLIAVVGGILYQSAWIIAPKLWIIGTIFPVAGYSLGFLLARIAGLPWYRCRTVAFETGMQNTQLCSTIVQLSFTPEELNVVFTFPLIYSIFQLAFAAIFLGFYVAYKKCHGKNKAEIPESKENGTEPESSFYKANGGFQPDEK
Procedure: 10,000 cells (Human or Mouse IBAT-overexpressing cells) were seeded in 96-wells plate (Corning CLS3809) in 200 μL MEM-alpha medium (Gibco 12571-063) supplemented with 10% FBS (Gibco 10438026) containing Puromycin (Gibco A1113803) (10 μg/mL) and incubated at 37° C. in 5% CO2 for 48 hours. After incubation, media was decanted from the wells and cells were washed two times with 300 μL of basal MEM-alpha medium (FBS-free). After decanting basal MEM-alpha medium each time, plates were tapped against paper towel to ensure maximum removal of residual media. Test inhibitor dilutions (highest test concentration being 10 μM, 3-fold serial dilution, 10 points) prepared in DMSO (Sigma D2650) were added in incubation mix (maintaining 0.2% final DMSO concentration) containing 0.25 μM 3H-taurocholic acid (ARC ART-1368) and 5 μM of cold taurocholic acid (Sigma T4009). 50 μL of incubation mix containing test inhibitors was then added to the wells (in duplicate) and the plates were incubated for 20 minutes in a CO2 incubator at 37° C. After incubation, the reaction was stopped by keeping the plates on ice water mix for 2-3 minutes and then the incubation mix was aspirated completely from the wells. The wells were washed two times with 250 μL of chilled unlabelled 1 mM taurocholic acid dissolved in HEPES (Gibco 15630080)-buffered (10 mM) HBSS (Gibco 14175079) (pH 7.4). The plates were tapped against a paper towel after every wash to ensure maximum removal of blocking buffer.
(§1) 100 μL of MicroScint-20 (PerkinElmer 6013621) was added to the wells and kept overnight at room temperature before reading the plates in TopCount NXT™ Microplate Scintillation and Luminescence Counter from PerkinElmer under 3H Test protocol (set at 120 seconds reading time per well).
(§2) All test compounds were provided in powder form at room temperature. 10 mM DMSO stocks of the test compounds were prepared, aliquoted and stored at −20° C. From the 10 mM DMSO stock of the compounds, a 3-fold serial dilution in DMSO was prepared to get a total of 10 dilutions of the test compounds. 0.5 μL of this dilution in DMSO was added to 250 μL of FBS-free basal media containing 3H-taurocholic acid and cold taurocholic acid to prepare the incubation mixture.

[2] = target: T2, hLBAT (Homo sapiens, UniProt Q14973); test: LBAT (h/m) assay, 3H-taurocholic acid uptake in human LBAT-overexpressing cells; format: cell-based; conditions: 0.3 μM 3H-taurocholic acid and 7.5 μM cold taurocholic acid, 20 minutes
T2 construct: expressed in transfected cells; kept under Geneticin selection
T2 sequence (Q14973 1-349): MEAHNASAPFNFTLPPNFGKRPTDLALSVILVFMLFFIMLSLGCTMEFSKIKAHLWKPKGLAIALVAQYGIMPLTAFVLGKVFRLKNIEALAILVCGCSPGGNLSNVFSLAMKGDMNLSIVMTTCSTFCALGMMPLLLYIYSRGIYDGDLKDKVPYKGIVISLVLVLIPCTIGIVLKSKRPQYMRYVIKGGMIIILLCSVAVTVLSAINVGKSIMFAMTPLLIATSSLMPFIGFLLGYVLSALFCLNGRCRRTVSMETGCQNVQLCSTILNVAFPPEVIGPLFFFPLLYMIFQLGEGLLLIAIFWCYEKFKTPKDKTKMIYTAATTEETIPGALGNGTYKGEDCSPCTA
Procedure: 20,000 cells (Human or Mouse LBAT-overexpressing cells) were seeded in 96-wells plate (Corning CLS3809) in 100 μL MEM-alpha medium (Gibco 12571-063) supplemented with 10% FBS (Gibco 10438026) containing Geneticin (Gibco 10131-027) (1 mg/mL) and incubated at 37° C. in 5% CO2 for 24 hours. After incubation, media was decanted from the wells and cells were washed two times with 300 μL of basal MEM-alpha medium (FBS-free). After decanting basal MEM-alpha medium each time, plates were tapped against paper towel to ensure maximum removal of residual media. For human LBAT, incubation mix was prepared by adding test inhibitor dilutions (3-fold serial dilution in DMSO (Sigma D2650), 10 points) in MEM-alpha (without FBS) containing 0.3 μM 3H-taurocholic acid (ARC ART-1368) and 7.5 μM cold taurocholic acid (Sigma T4009) (maintaining 0.2% final DMSO concentration). For mouse LBAT, incubation mix was prepared by adding test inhibitor dilutions (3-fold serial dilution in DMSO, 10 points) in MEM-alpha (without FBS) containing 0.3 μM 3H-taurocholic acid and 25 μM cold taurocholic acid maintaining 0.2% final DMSO concentration). 50 μL of incubation mix containing test inhibitors was then added to the wells (in duplicate) and the plates were incubated for 20 minutes in a CO2 incubator at 37° C. After incubation, the reaction was stopped by keeping the plates on ice water mix for 2-3 minutes and then the incubation mix was aspirated completely from the wells. The wells were washed two times with 250 μL of chilled unlabelled 1 mM taurocholic acid dissolved in HEPES (Gibco 15630080)-buffered (10 mM) HBSS (Gibco 14175079) (pH 7.4). The plates were tapped against a paper towel after every wash to ensure maximum removal of blocking buffer.
as §1, with “well, with normal plate orientation).” for “well).”
as §2

[3] = Bidirectional permeability assay (Caco-2 cells); conditions: human, Caco-2
Procedure: Caco-2 cells (Evotec) were seeded at a density of 70,000 cells/well in Millicell® 24-well cell culture insert plates and maintained in an incubator (37° C., 5% CO2, 95% RH) for 21 days with media change on alternate days.
Stock solutions (10 mM) of the test compounds, atenolol (low permeability marker), propranolol (high permeability marker) and digoxin (substrate for P-gp transport pathway) were prepared in dimethylsulfoxide (DMSO). An intermediate stock solution (1 mM) was prepared by diluting 10 μL of 10 mM master stock solution with 90 μL of neat DMSO. A working stock solution (10 μM) was prepared by diluting 50 μL of 1 mM with 4950 μL of FaSSIF buffer. Post addition of compounds to the FaSSIF, samples were subjected to sonication for 2 hours, and centrifuged at 4000 RPM for 30 minutes at 37° C. The 4 mL of resultant supernatant was directly used in the assay. The final DMSO concentration in the transport experiments was 1%.
On the day of assay, Caco-2 monolayers were washed twice with transport buffer (HBSS, pH 7.4) and pre-incubated for 30 min (37° C., 5% CO2, 95% RH) in an incubator. The electrical resistance of the monolayers was measured with a Millicell®—ERS system. Monolayers with trans-epithelial electrical resistance (TEER) values greater than 350 ohm·cm^2 were selected for the assay.
The assay was conducted in absorptive direction (A2B) and secretory (B2A) directions. Transport experiments were initiated by addition of transport assay buffer (FaSSIF buffer prepared in HBSS) consisting of compounds to the donor compartment (apical chamber A-B; basolateral chamber B-A) in duplicate (n=2) wells. Drug free HBSS buffer (pH 7.4) containing 1% bovine serum albumin (BSA) was introduced to the receiver (A-B-basolateral; B-A-Apical) compartments. The volumes of apical and basolateral compartments were 0.4 and 0.8 mL, respectively. After adding dosing solution, plates were incubated in an incubator for 120 minutes at 37° C. After 120 minutes, donor and receiver samples were collected and matrix matched (1:1, 30 μL study sample+30 μL blank buffer) with the opposite buffer. Dosing samples matrix matched (1:1, 30 μL study sample+30 μL blank buffer) with the opposite buffer. Samples were processed by adding acetonitrile containing internal standard (60 μL study sample+200 μL acetonitrile containing internal standard—Tolbutamide, 500 ng/mL). Samples were vortexed and centrifuged at 4000 rpm for 10 minutes. The obtained supernatant (100 μL) was diluted with 100 μL of water and transferred to fresh 96 well plates. The concentration of compounds in the samples was analyzed by liquid chromatography tandem mass spectrometry (LC-MS/MS) method using discovery grade bio-analytical method, as applicable.
The mean apparent permeability (Papp, ×10^−6 cm/sec) of the test compounds, atenolol, propranolol and digoxin were calculated as follows:

Molecule	IC50 [1] [nM]	IC50 [2] [nM]	Papp A→B at 120 min, 10 µM [3] [×10⁻⁶ cm/s]	Papp B→A at 120 min, 10 µM [3] [×10⁻⁶ cm/s]
CCCC[C@@]1(CC)CN(c2ccccc2)c2cc(N(C)C)c(O/C=C/C(=O)O)cc2S(=O)(=O)N1.CCCC[C@]1(CC)CN(c2ccccc2)c2cc(N(C)C)c(O/C=C/C(=O)O)cc2S(=O)(=O)N1 (mixture of isomers) [Example 15, (S)-(E)-3-((3-butyl-7-(dimethylamino)-3-ethyl-1,1-dioxido-5-phenyl-2,3,4,5-tetrahydro-1,2,5-benzothiadiazepin-8-yl)oxy)acrylic acid and (R)-(E)-3-((3-butyl-7-(dimethylamino)-3-ethyl-1,1-dioxido-5-phenyl-2,3,4,5-tetrahydro-1,2,5-benzothiadiazepin-8-yl)oxy)acrylic acid]	66			
CCC[C@@]1(CC)CN(c2ccccc2)c2cc(SC)c(O/C=C(\F)C(=O)O)cc2S(=O)(=O)C1.CCC[C@]1(CC)CN(c2ccccc2)c2cc(SC)c(O/C=C(\F)C(=O)O)cc2S(=O)(=O)C1 (mixture of isomers) [Example 18, (S)—(Z)-3-((3-ethyl-7-(methylthio)-1,1-dioxido-5-phenyl-3-propyl-2,3,4,5-tetrahydro-1,5-benzothiazepin-8-yl)oxy)-2-fluoroacrylic acid and (R)—(Z)-3-((3-ethyl-7-(methylthio)-1,1-dioxido-5-phenyl-3-propyl-2,3,4,5-tetrahydro-1,5-benzothiazepin-8-yl)oxy)-2-fluoroacrylic acid]	337	38		
CCC[C@@]1(CC)CN(c2ccccc2)c2cc(SC)c(O/C=C(\F)C(=O)O)cc2S(=O)(=O)C1.CCC[C@]1(CC)CN(c2ccccc2)c2cc(SC)c(O/C=C(\F)C(=O)O)cc2S(=O)(=O)C1 (mixture of isomers) [Example 19, (S)—(Z)-3-((3-ethyl-7-(methylthio)-1,1-dioxido-5-phenyl-3-propyl-2,3,4,5-tetrahydro-1,5-benzothiazepin-8-yl)oxy)-2-fluoroacrylic acid and (R)—(Z)-3-((3-ethyl-7-(methylthio)-1,1-dioxido-5-phenyl-3-propyl-2,3,4,5-tetrahydro-1,5-benzothiazepin-8-yl)oxy)-2-fluoroacrylic acid]	283	5		
(S)-(E)-3-((3-butyl-3-ethyl-5-(4-fluorophenyl)-7-(methylthio)-1,1-dioxido-2,3,4,5-tetrahydro-1,5-benzothiazepin-8-yl)oxy)acrylic acid and (R)-(E)-3-((3-butyl-3-ethyl-5-(4-fluorophenyl)-7-(methylthio)-1,1-dioxido-2,3,4,5 tetrahydro-1,5-benzothiazepin-8-yl)oxy)acrylic acid [Example 9]	151	150		
(S)—(Z)-3-((3-butyl-7-(dimethylamino)-3-ethyl-1,1-dioxido-5-phenyl-2,3,4,5-tetrahydro-1,2,5-benzothiadiazepin-8-yl)oxy)-2-fluoroacrylic acid and (R)—(Z)-3-((3-butyl-7-(dimethylamino)-3-ethyl-1,1-dioxido-5-phenyl-2,3,4,5-tetrahydro-1,2,5-benzothiadiazepin-8-yl)oxy)-2-fluoroacrylic acid [Example 4]	91	77		

Second part, the molecule after the results:

IC50 [1] [nM]	IC50 [2] [nM]	Papp A→B at 120 min, 10 µM [3] [×10⁻⁶ cm/s]	Papp B→A at 120 min, 10 µM [3] [×10⁻⁶ cm/s]	Molecule
21	49	0.9	0.9	CCCCC1(CCCC)CN(c2ccc(F)cc2)c2cc(SC)c(O/C=C(\F)C(=O)O)cc2S(=O)(=O)C1 [Example 1, (Z)-3-((3,3-dibutyl-5-(4-fluorophenyl)-7-(methylthio)-1,1-dioxido-2,3,4,5-tetrahydro-1,5-benzothiazepin-8-yl)oxy)-2-fluoroacrylic acid]
13	124	1.4	2.4	CCCCC1(CC)CN(c2ccccc2)c2cc(N(C)C)c(O/C=C(\F)C(=O)O)cc2S(=O)(=O)N1 (stereo not drawn) [Example 2, (Z)-3-((3-butyl-7-(dimethylamino)-3-ethyl-1,1-dioxido-5-phenyl-2,3,4,5-tetrahydro-1,2,5-benzothiadiazepin-8-yl)oxy)-2-fluoroacrylic acid]
7	118			CCCCC1(CC)CN(c2ccc(F)cc2)c2cc(SC)c(O/C=C/C(=O)O)cc2S(=O)(=O)C1 (stereo not drawn) [Example 8, (E)-3-((3-butyl-3-ethyl-5-(4-fluorophenyl)-7-(methylthio)-1,1-dioxido-2,3,4,5-tetrahydro-1,5-benzothiazepin-8-yl)oxy)acrylic acid]
260	97			CCCC1(CC)CN(c2ccccc2)c2cc(SC)c(O/C=C/C(=O)O)cc2S(=O)(=O)C1 (stereo not drawn) [Example 11, (E)-3-((3-ethyl-7-(methylthio)-1,1-dioxido-5-phenyl-3-propyl-2,3,4,5-tetrahydro-1,5-benzothiazepin-8-yl)oxy)acrylic acid]
565	218			CCC1(C(C)C)CN(c2ccccc2)c2cc(SC)c(O/C=C/C(=O)O)cc2S(=O)(=O)C1 (stereo not drawn) [Example 16, (E)-3-((3-ethyl-3-isopropyl-7-(methylthio)-1,1-dioxido-5-phenyl-2,3,4,5-tetrahydro-1,5-benzothiazepin-8-yl)oxy)acrylic acid]
378	17			CCC1(C(C)C)CN(c2ccccc2)c2cc(SC)c(O/C=C(\F)C(=O)O)cc2S(=O)(=O)C1 (stereo not drawn) [Example 17, (Z)-3-((3-ethyl-3-isopropyl-7-(methylthio)-1,1-dioxido-5-phenyl-2,3,4,5-tetrahydro-1,5-benzothiazepin-8-yl)oxy)-2-fluoroacrylic acid]
66	12			(S)—(Z)-3-((3-butyl-3-ethyl-5-(4-fluorophenyl)-7-(methylthio)-1,1-dioxido-2,3,4,5-tetrahydro-1,5-benzothiazepin-8-yl)oxy)-2-fluoroacrylic acid and (R)—(Z)-3-((3-butyl-3-ethyl-5-(4-fluorophenyl)-7-(methylthio)-1,1-dioxido-2,3,4,5-tetrahydro-1,5-benzothiazepin-8-yl)oxy)-2-fluoroacrylic acid [Example 6]
